Data taken from ChEMBL document CHEMBL1201862, “PubChem BioAssay data set” (2004).
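Interpolation was linear, between the two tested concentrations surrounding the appropriate level; five concentrations were tested over 48 hours in 96-well plates. GI50: concentration for 50% inhibition of growth.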 Activity calls are given as the source filed them. Cut-off read from the data, not from the text of the source: active = GI50 up to about 1.1 µM and inactive = higher.

Assays:
Assay in all cases: NCI tumour cell line growth inhibition, 48 h
HCC 2998 = test system: HCC 2998
LXFL 529 = test system: LXFL 529
SF-295 = test system: SF-295
KM12 = test system: KM12
K562 = test system: K562
NCI-H226 = test system: NCI-H226
DLD-1 = test system: DLD-1
NCI-H23 = test system: NCI-H23
SNB-78 = test system: SNB-78
Malme-3M = test system: Malme-3M
SNB-75 = test system: SNB-75
U-251 = test system: U-251
HOP-62 = test system: HOP-62
HCT-116 = test system: HCT-116
HT-29 = test system: HT-29
SK-OV-3 = test system: SK-OV-3
RPMI-8226 = test system: RPMI-8226
SR = test system: SR
NCI-H460 = test system: NCI-H460
786-0 = test system: 786-0
MOLT-4 = test system: MOLT-4
A549 = test system: A549
SK-MEL-2 = test system: SK-MEL-2
SN12C = test system: SN12C
HL-60 = test system: HL-60
IGROV-1 = test system: IGROV-1
RXF 631 = test system: RXF 631
OVCAR-4 = test system: OVCAR-4
COLO 205 = test system: COLO 205
UACC-62 = test system: UACC-62
A498 = test system: A498
SK-MEL-28 = test system: SK-MEL-28
HCT-15 = test system: HCT-15
SF-268 = test system: SF-268
CCRF-CEM = test system: CCRF-CEM
M14 = test system: M14
OVCAR-3 = test system: OVCAR-3
M19-MEL = test system: M19-MEL
ACHN = test system: ACHN
SNB-19 = test system: SNB-19
RXF 393 = test system: RXF 393
OVCAR-8 = test system: OVCAR-8
DMS-114 = test system: DMS-114
NCI-H522 = test system: NCI-H522
TK-10 = test system: TK-10
OVCAR-5 = test system: OVCAR-5
KM-20L2 = test system: KM-20L2
UACC-257 = test system: UACC-257
SF-539 = test system: SF-539
SW-620 = test system: SW-620
UO-31 = test system: UO-31
EKVX = test system: EKVX
DMS-273 = test system: DMS-273
CAKI-1 = test system: CAKI-1
HOP-92 = test system: HOP-92

CC1CC(c2ccc(Cl)cc2)=Nc2ccccc2S1 (configuration not stated)
GI50 (HCC 2998): > 100 µM (inactive) | GI50 (LXFL 529): > 100 µM (inactive) | GI50 (SF-295): > 100 µM (inactive) | GI50 (KM12): > 100 µM (inactive) | GI50 (K562): > 100 µM (inactive) | GI50 (NCI-H226): > 100 µM (inactive) | GI50 (DLD-1): > 100 µM (inactive) | GI50 (NCI-H23): > 100 µM (inactive) | GI50 (SNB-78): > 100 µM (inactive) | GI50 (Malme-3M): > 100 µM (inactive) | GI50 (SNB-75): > 100 µM (inactive) | GI50 (U-251): > 100 µM (inactive) | GI50 (HOP-62): > 100 µM (inactive) | GI50 (HCT-116): > 100 µM (inactive) | GI50 (HT-29): > 100 µM (inactive) | GI50 (SK-OV-3): > 100 µM (inactive) | GI50 (RPMI-8226): > 100 µM (inactive) | GI50 (SR): > 100 µM (inactive) | GI50 (NCI-H460): > 100 µM (inactive) | GI50 (786-0): > 100 µM (inactive) | GI50 (MOLT-4): > 100 µM (inactive) | GI50 (A549): > 100 µM (inactive) | GI50 (SK-MEL-2): > 100 µM (inactive) | GI50 (SN12C): > 100 µM (inactive) | GI50 (HL-60): > 100 µM (inactive) | GI50 (IGROV-1): > 100 µM (inactive) | GI50 (RXF 631): > 100 µM (inactive) | GI50 (OVCAR-4): > 100 µM (inactive) | GI50 (COLO 205): > 100 µM (inactive) | GI50 (UACC-62): > 100 µM (inactive) | GI50 (A498): > 100 µM (inactive) | GI50 (SK-MEL-28): > 100 µM (inactive) | GI50 (HCT-15): > 100 µM | GI50 (SF-268): > 100 µM (inactive) | GI50 (CCRF-CEM): > 100 µM (inactive) | GI50 (M14): > 100 µM (inactive) | GI50 (OVCAR-3): > 100 µM (inactive) | GI50 (M19-MEL): > 100 µM (inactive) | GI50 (ACHN): > 100 µM (inactive) | GI50 (SNB-19): > 100 µM (inactive) | GI50 (RXF 393): > 100 µM (inactive) | GI50 (OVCAR-8): > 100 µM (inactive) | GI50 (DMS-114): > 100 µM (inactive) | GI50 (NCI-H522): > 100 µM (inactive) | GI50 (TK-10): > 100 µM (inactive) | GI50 (OVCAR-5): > 100 µM (inactive) | GI50 (KM-20L2): > 100 µM (inactive) | GI50 (UACC-257): > 100 µM (inactive) | GI50 (SF-539): > 100 µM (inactive) | GI50 (SW-620): > 100 µM (inactive) | GI50 (UO-31): > 100 µM (inactive) | GI50 (EKVX): > 100 µM (inactive)

CCOc1ccc(NC(=O)/C(CC(=O)c2c[n+]([O-])c3ccccc3[n+]2[O-])=N\OCCCc2ccccc2)cc1
GI50 (HCC 2998): > 100 µM (inactive) | GI50 (LXFL 529): > 100 µM (inactive) | GI50 (SF-295): > 100 µM (inactive) | GI50 (KM12): > 100 µM (inactive) | GI50 (K562): 62.5 µM (inactive) | GI50 (NCI-H226): 44.9 µM (inactive) | GI50 (DLD-1): > 100 µM (inactive) | GI50 (NCI-H23): > 100 µM (inactive) | GI50 (SNB-78): > 100 µM (inactive) | GI50 (Malme-3M): > 100 µM (inactive) | GI50 (SNB-75): > 100 µM (inactive) | GI50 (U-251): > 100 µM (inactive) | GI50 (HOP-62): > 100 µM (inactive) | GI50 (HCT-116): > 100 µM (inactive) | GI50 (HT-29): > 100 µM (inactive) | GI50 (SK-OV-3): > 100 µM (inactive) | GI50 (RPMI-8226): > 100 µM (inactive) | GI50 (SR): > 100 µM (inactive) | GI50 (NCI-H460): > 100 µM (inactive) | GI50 (786-0): > 100 µM (inactive) | GI50 (MOLT-4): > 100 µM (inactive) | GI50 (A549): > 100 µM (inactive) | GI50 (SK-MEL-2): > 100 µM (inactive) | GI50 (SN12C): > 100 µM (inactive) | GI50 (HL-60): > 100 µM (inactive) | GI50 (IGROV-1): > 100 µM (inactive) | GI50 (DMS-273): > 100 µM (inactive) | GI50 (RXF 631): > 100 µM (inactive) | GI50 (OVCAR-4): > 100 µM (inactive) | GI50 (CAKI-1): > 100 µM (inactive) | GI50 (COLO 205): > 100 µM (inactive) | GI50 (UACC-62): > 100 µM (inactive) | GI50 (A498): > 100 µM (inactive) | GI50 (SK-MEL-28): > 100 µM (inactive) | GI50 (HCT-15): > 100 µM | GI50 (SF-268): > 100 µM (inactive) | GI50 (CCRF-CEM): 42.2 µM (inactive) | GI50 (M14): > 100 µM (inactive) | GI50 (OVCAR-3): > 100 µM (inactive) | GI50 (M19-MEL): > 100 µM (inactive) | GI50 (ACHN): > 100 µM (inactive) | GI50 (SNB-19): > 100 µM (inactive) | GI50 (RXF 393): > 100 µM (inactive) | GI50 (OVCAR-8): > 100 µM (inactive) | GI50 (DMS-114): > 100 µM (inactive) | GI50 (NCI-H522): > 100 µM (inactive) | GI50 (TK-10): > 100 µM (inactive) | GI50 (OVCAR-5): > 100 µM (inactive) | GI50 (KM-20L2): > 100 µM (inactive) | GI50 (UACC-257): > 100 µM (inactive) | GI50 (SF-539): > 100 µM (inactive) | GI50 (SW-620): > 100 µM (inactive) | GI50 (UO-31): > 100 µM (inactive) | GI50 (HOP-92): 16.9 µM (inactive) | GI50 (EKVX): > 100 µM (inactive)
